Among the data in ChEMBL document CHEMBL1135837, “Approach to dual-acting platelet activating factor (PAF) receptor antagonist/thromboxane synthase inhibitor (TxSI) based on the link of PAF antagonists and TxSIs” (Bioorg Med Chem Lett, 2002) are IC50 and ED50 values, retold here.

Each structure is given as a SMILES string. pIC50: −log10 of the molar value.

Common to all, as to format: functional
The target of one experiment is T1, Thromboxane-A synthase (Homo sapiens, UniProt P24557).
T1 sequence (P24557 whole entry): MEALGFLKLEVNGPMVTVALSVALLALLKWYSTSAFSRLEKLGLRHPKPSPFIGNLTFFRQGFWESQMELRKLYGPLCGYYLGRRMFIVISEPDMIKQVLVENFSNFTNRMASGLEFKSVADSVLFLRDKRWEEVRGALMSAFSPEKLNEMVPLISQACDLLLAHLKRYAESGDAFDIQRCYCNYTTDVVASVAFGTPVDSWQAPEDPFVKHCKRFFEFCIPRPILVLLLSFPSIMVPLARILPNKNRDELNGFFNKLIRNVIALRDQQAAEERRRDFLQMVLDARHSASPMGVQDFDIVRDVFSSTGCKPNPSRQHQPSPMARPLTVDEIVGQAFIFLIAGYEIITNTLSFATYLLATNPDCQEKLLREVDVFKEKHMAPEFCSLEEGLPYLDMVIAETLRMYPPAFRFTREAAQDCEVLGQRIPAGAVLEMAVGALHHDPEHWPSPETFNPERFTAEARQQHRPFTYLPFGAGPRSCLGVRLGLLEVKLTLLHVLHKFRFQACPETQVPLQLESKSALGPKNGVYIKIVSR
As to the kind of experiment: In vitro inhibition of TXB2 production by incubating prostaglandin H2 with human platelet microsomes.

For a further experiment, the species on record is Oryctolagus cuniculus. As to the kind of experiment: In vitro inhibition of platelet activating factor induced platelet aggregation in rabbit platelet rich plasma.
For a further experiment, the species on record is Mus musculus. As to the kind of experiment: Ex vivo antagonistic activity towards platelet activating factor was assessed in mouse by using PAF-induced death assay.

For `CCOC(=O)CCCCO/N=C(/c1cccnc1)c1ccccc1C(=O)N1CCN(C(=O)C2CSC(c3cccnc3)N2)CC1` (stereo not given), the values for the pIC50 on Thromboxane-A synthase and in the experiment listed under Oryctolagus cuniculus were less than 6.00 and 6.25, respectively.
On the same counts, the results for `CCOC(=O)CCCCO/N=C(\c1cccnc1)c1cccc(CN2CCN(C(=O)C3CSC(c4cccnc4)N3)CC2)c1` (stereo not given) are 7.06 and 6.70.
For `CCOC(=O)CCCCO/N=C(\c1ccc(NC(=O)C2CSC(c3cccnc3)N2)cc1)c1cccnc1` (stereo not given) the same measures were 7.68 and less than 6.00.
On the same counts, the results for `CCOC(=O)CCCCO/N=C(\c1cccnc1)c1cccc(NC(=O)c2ccn3c2CSC3c2cccnc2)c1` (stereo not given) are 8.92 and 6.35.
For the compound `CCOC(=O)CCCCO/N=C(/c1cccnc1)c1cccc(CNS(=O)(=O)c2ccc(Cn3c(C)nc4cnccc43)cc2)c1`, the pIC50 – broadly, the negative decadic logarithm of the IC50, by convention in mol/L – was 8.33 at Thromboxane-A synthase and 7.17 in the experiment filed under Oryctolagus cuniculus.
Compound `CCOC(=O)CCCCO/N=C(/c1ccccc1)c1cccnc1` had a pIC50 against Thromboxane-A synthase of 9.00.
Consider `Cc1nc2cnccc2n1Cc1ccc(S(=O)(=O)NCc2cccc(/C(=N\OCCCCC(=O)O)c3cccnc3)c2)cc1`, for which the pIC50 is 8.74 at Thromboxane-A synthase and less than 6.00 in the experiment listed under Oryctolagus cuniculus.
As for `CCOC(=O)CCCCO/N=C(/c1cccnc1)c1cccc(C(=O)N2CCN(C(=O)C3CSC(c4cccnc4)N3)CC2)c1` (stereo not given), the negative logarithm of the IC50 (pIC50) on Thromboxane-A synthase is 7.28; in the experiment listed under Oryctolagus cuniculus, 6.32.
As to `CCOC(=O)CCCCO/N=C(\c1cccnc1)c1cccc(CNS(=O)(=O)c2ccc(Cn3c(C)nc4cnccc43)cc2)c1`, the results for the pIC50 against Thromboxane-A synthase and in the experiment filed under Oryctolagus cuniculus were 8.24 and 7.17, respectively.
For `CCOC(=O)CCCCO/N=C(\c1ccc(NC(=O)c2ccn3c2CSC3c2cccnc2)cc1)c1cccnc1` (stereo not given), the results for the negative logarithm of the IC50 (pIC50) at Thromboxane-A synthase and in the experiment listed under Oryctolagus cuniculus were 8.44 and 6.26, respectively.
In turn, `CCOC(=O)C1=C(c2ccc(-n3c(C)nc4cnccc43)cc2)NC(C)=C(C(=O)Nc2ccccn2)C1c1ccccc1Cl` (stereo not given) had a pIC50 in the experiment filed under Oryctolagus cuniculus of 7.54.
As for `CCOC(=O)CCCCO/N=C(/c1cccnc1)c1cccc(C(=O)N2CCc3c(sc4c3C(c3ccccc3Cl)=NC(C)c3nnc(C)n3-4)C2)c1` (stereo not given), the 50% effect level in the experiment listed under Mus musculus (ED50) was put at a dose of 2.3 mg/kg. The negative-log IC50 (pIC50) was 7.19 against Thromboxane-A synthase and 7.22 in the experiment filed under Oryctolagus cuniculus.
For the compound `CCOC(=O)CCCCO/N=C(\c1ccc(CN2CCN(C(=O)C3CSC(c4cccnc4)N3)CC2)cc1)c1cccnc1` (stereo not given), the results for the negative-log IC50 (pIC50) at Thromboxane-A synthase and in the experiment listed under Oryctolagus cuniculus were 7.14 and 6.55, respectively.
On the same counts, the results for `O=C(O)CCCCO/N=C(\c1cccnc1)c1cccc(CN2CCN(C(=O)C3CSC(c4cccnc4)N3)CC2)c1` (stereo not given) are 7.92 and less than 6.00.
Take `CCOC(=O)CCCCO/N=C(\c1ccc(C(=O)N2CCc3c(sc4c3C(c3ccccc3Cl)=NC(C)c3nnc(C)n3-4)C2)cc1)c1cccnc1` (stereo not given): in the experiment listed under Mus musculus, the ED50 (in general, the dose at which the effect has come halfway, by size or by number of responders) amounted to 0.5 mg/kg. In addition, the negative logarithm of the IC50 (pIC50) against Thromboxane-A synthase is 7.14; in the experiment filed under Oryctolagus cuniculus, 7.00.
For the compound `CCOC(=O)CCCCO/N=C(\c1cccnc1)c1cccc(NC(=O)C2CSC(c3cccnc3)N2)c1` (stereo not given), the pIC50 against Thromboxane-A synthase is 7.68; in the experiment listed under Oryctolagus cuniculus it was less than 6.00.
On to `CCOC(=O)CCCCO/N=C(\c1ccc(C(=O)N2CCN(C(=O)C3CSC(c4cccnc4)N3)CC2)cc1)c1cccnc1` (stereo not given), for which the results for the pIC50 against Thromboxane-A synthase and in the experiment listed under Oryctolagus cuniculus were 7.36 and 6.21, respectively.
On to `Cc1nnc2n1-c1sc3c(c1C(c1ccccc1Cl)=N[C@H]2C)CCN(C(=O)C1CC1)C3` (racemic), for which the pIC50 in the experiment listed under Oryctolagus cuniculus was 6.44.
